Experimental data taken from patent publication US9403806B1, “Cognition enhancing compounds and compositions, methods of making, and methods of treating” (NeuroSolis, Inc., priority 2010, dated 2016).

How the values were obtained:
Type in all cases: cell-based
[1] = target: T1, human muscarinic M3 receptors (Homo sapiens, UniProt P20309); assay: IP production in A9L cells with human M3 receptors (IPOne TR-FRET), Example 28; conditions: for huM3/A9L Smax: percentage of maximal stimulation by carbachol; for huM3/A9L ED50 relative to CCh*: potency relative to carbachol at its EC50, semi-quantitative
T1 construct: host or cells: A9L cells
Experimental: (§1) Muscarinic M1 and M3 agonist activity was evaluated by measuring the stimulation of inositol phosphate (IP) production in the presence of lithium chloride from A9L cells transfected with expression plasmids containing human muscarinic M1 and M3 receptors, respectively. The cell lines were a gift from Professor W Messer, and the methods were as described in Tejada F R et al. J. Med. Chem. 2006; 49: 7518-31 except that the assay was scaled down to run in 384 well plates, and IP was measured in the cell lysates using the non-isotopic IPOne TR-FRET assay (CIS-BIO, Inc).
(§2) Cells were grown to 90% confluence in 384 well hi-base plates (Greiner Bio-One), compounds were added at suitable concentrations in growth medium containing 10 mM LiCl, buffered with an extra 10 mM HEPES (pH7.4), and incubated for 60 minutes at 37° C. Cells were lysed and assayed for IP following the manufacturer's instructions.
(§3) The value for a full agonist is 100%, while partial agonists give values below 100%.

[2] = target: T2, human muscarinic M1 receptors (Homo sapiens, UniProt P11229); assay: IP production in A9L cells with human M1 receptors (IPOne TR-FRET), Example 28; conditions: for huM1/A9L Smax: percentage of maximal stimulation by carbachol; for huM1/A9L ED50 relative to CCh*: potency relative to carbachol at its EC50, semi-quantitative; for potency and efficacy at M1 muscarinic receptors (in words): huM1/A9L
T2 construct: host or cells: A9L cells
T2 sequence (P11229 1-460): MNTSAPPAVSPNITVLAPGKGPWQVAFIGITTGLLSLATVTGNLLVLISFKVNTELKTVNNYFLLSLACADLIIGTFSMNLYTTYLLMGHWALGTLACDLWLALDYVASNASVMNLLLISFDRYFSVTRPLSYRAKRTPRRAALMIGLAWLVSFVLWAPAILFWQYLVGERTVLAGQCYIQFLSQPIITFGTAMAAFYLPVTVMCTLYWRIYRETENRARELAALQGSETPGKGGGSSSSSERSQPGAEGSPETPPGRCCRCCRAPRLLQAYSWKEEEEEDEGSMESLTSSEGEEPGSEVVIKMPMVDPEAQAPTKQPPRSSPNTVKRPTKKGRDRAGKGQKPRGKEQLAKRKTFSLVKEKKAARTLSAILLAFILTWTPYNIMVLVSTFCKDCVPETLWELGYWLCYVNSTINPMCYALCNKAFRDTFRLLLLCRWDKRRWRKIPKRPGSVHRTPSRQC
Experimental: as §1, §2, §3

[3] = target: T2, human muscarinic M1 receptors; conditions: relative to the potency of carbachol at its EC50
Experimental: (§4) Muscarinic M1 and M3 agonist activity was evaluated by measuring the stimulation of inositol phosphate (IP) production in the presence of lithium chloride from A9L cells transfected with expression plasmids containing human muscarinic M1 and M3 receptors, respectively. The cell lines were a gift from Professor William Messer, and the methods were as described in Tejada et al. (J. Med. Chem. 2006; 49: 7518-31) except that the assay was scaled down to run in 384-well plates and the concentration of inositol-1-phosphate in the lysates was determined using the non-isotopic IP-One Terbium TR-FRET assay kit (Cisbio Bioassays, cat. #62IPAPEJ) according to the manufacturer's instructions.
(§5) Cells were grown to 90% confluence in 384-well high-base, small-volume plates (Greiner Bio-One), compounds were added at suitable concentrations in growth medium containing 10 mM LiCl, buffered with an extra 10 mM HEPES (pH=7.4), and incubated for 60 minutes at 37° C. Cells were lysed and assayed for IP following the manufacturer's instructions.
as §3

[4] = target: T1, human muscarinic M3 receptors; conditions: relative to the potency of carbachol at its EC50
Experimental: as §4, §5, §3

T1 sequence (P20309 whole entry): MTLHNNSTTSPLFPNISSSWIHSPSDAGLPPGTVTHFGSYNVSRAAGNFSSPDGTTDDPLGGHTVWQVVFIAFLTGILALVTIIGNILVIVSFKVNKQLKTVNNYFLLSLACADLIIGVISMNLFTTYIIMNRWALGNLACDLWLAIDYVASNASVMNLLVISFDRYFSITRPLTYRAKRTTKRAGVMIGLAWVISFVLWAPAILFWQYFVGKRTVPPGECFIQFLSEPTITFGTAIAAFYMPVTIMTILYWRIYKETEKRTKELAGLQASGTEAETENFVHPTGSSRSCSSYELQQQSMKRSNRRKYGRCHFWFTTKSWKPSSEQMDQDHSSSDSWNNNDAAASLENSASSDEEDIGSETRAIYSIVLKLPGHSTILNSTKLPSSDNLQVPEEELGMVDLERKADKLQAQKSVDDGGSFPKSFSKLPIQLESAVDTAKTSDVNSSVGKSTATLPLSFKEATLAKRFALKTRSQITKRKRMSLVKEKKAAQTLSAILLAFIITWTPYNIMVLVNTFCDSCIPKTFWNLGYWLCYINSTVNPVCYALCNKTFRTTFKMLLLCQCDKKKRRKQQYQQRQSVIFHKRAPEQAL

Row | SMILES | huM3/A9L Smax [1] [%] | huM3/A9L ED50 relative to CCh* [1] | huM1/A9L Smax [2] [%] | huM1/A9L ED50 relative to CCh* [2] | potency and efficacy at M1 muscarinic receptors (in words) [2] | huM1/A9L Potency relative to carbachol [3] | huM3/A9L Potency relative to carbachol [4]
1 | c1nsc(C2CCCNC2)n1 (stereo not drawn) [Compound 12b, 5-(piperidin-3-yl)-1,2,4-thiadiazol] | 60 | −− (−− potency <0.1x CCh) | 100 | − (− potency <0.5-0.1x CCh) | – | – | –
2 | Cc1noc([C@H]2CNC[C@@H](C)C2)n1 [Compound 20] | 20 | inactive | 9 | inactive | – | – | –
3 | Cc1noc([C@@H]2CCCN[C@@H]2C)n1 [Compound 24] | 32 | inactive | 41 | −− (−− potency <0.1x CCh) | – | – | –
4 | Cc1noc([C@H]2CNCC[C@H]2C)n1 [Compound 22] | 15 | inactive | 7 | inactive | – | – | –
5 | Nc1noc(C2CCCNC2)n1 (stereo not drawn) [Compound 27, 3-Amino-5-(piperidin-3-yl)-1,2,4-oxadiazole] | 20 | +/− (+/− potency 0.5-2x CCh) | 97 | + (+ potency 2-10x CCh) | – | – | –
6 | Cc1noc(C2CCNC2)n1 (stereo not drawn) [Compound 31, 3-methyl-5-(pyrrolidin-3-yl)-1,2,4-oxadiazole] | 60 | − (− potency <0.5-0.1x CCh) | 113 | + (+ potency 2-10x CCh) | – | – | –
7 | Cc1noc([C@@H]2CNCC[C@H]2C)n1 [Compound 23] | 19 | inactive | 23 | inactive | – | – | –
8 | Cc1noc([C@@H]2CNC[C@@H](C)C2)n1 [Compound 21] | 14 | inactive | 18 | inactive | – | – | –
9 | CCc1noc(C2CCCNC2)n1 (stereo not drawn) [Compound 38, 3-ethyl-5-(piperidin-3-yl)-1,2,4-oxadiazo1e] | <14 | inactive | 15 | inactive | essentially inactive | – | –
10 | Cc1noc(C2CCCN(C)C2)n1 (stereo not drawn) [Compound 5, 3-Methyl-5-(1-methylpiperidin-3-yl)-1,2,4-oxadiazole] | 20 | inactive | 20 | inactive | essentially inactive | – | –
11 | Cc1noc(C2CCC(C)NC2)n1 (stereo not drawn) [Compound 18, 3-Methyl-5-(6-methylpiperidin-3-yl)-1,2,4-oxadiazole] | 18 | inactive | 14 | inactive | – | – | –
12 | Cc1noc([C@H]2CCCN[C@@H]2C)n1 [Compound 25] | 20 | inactive | 3 | inactive | – | – | –
13 | Cc1noc(C23CNCC2C3)n1 (racemic) [Compound 121, 5-(4,4-d2-3-Azabicyclo[3.1.0]hexan-1-yl)-3-methyl-1,2,4-oxadiazole] | – | – | – | – | – | 1.10 | 0.45
14 | Cc1noc([C@H]2CC[C@H](C)NC2)n1 [Compound 19] | 34 | inactive | 15 | inactive | – | – | –
15 | Cc1nsc(C2CCCNC2)n1.Cl (stereo not drawn) [Compound 12a, 3-methyl-5-(piperidin-3-yl)-1,2,4-thiadiazole hydrochloride] | 58 | + (+ potency 2-10x CCh) | 101 | + (+ potency 2-10x CCh) | – | – | –
